Earlier results as cited in US20230013142A1, “IODINE COMPOUNDS FOR TREATING RESPIRATORY PATHOGENS” (priority 2020, published 2023).

What was measured:
neuraminidase = conditions: virucidal mechanism of action
viral haemagglutinin = conditions: blockade of attachment to host cell receptors
[1] = rats, ingestion, 2-year period
[2] = I2 and I- mixed solutions
a variety of viruses = conditions: on the skin
parasite's acid vesicles = conditions: biologically active concentrations

Compound: povidone iodine (2-Pyrrolidinone, 1-ethenyl-homopolymer) [PVP-I]
- effect on neuraminidase (neuraminidase): inhibition
- effect on viral haemagglutinin (viral haemagglutinin): inhibits

Compound: [I-].[K+] [potassium iodide]
- concentration with long-term decrease in life span [1]: 100 ppm
- concentration with no long-term effects [1]: 10 ppm

Compound: II [iodine]
- air level considered immediately dangerous to life or health (IDLH) (air level): 2 ppm
- concentration at which reports of discomfort start (NIOSH) (inhalation): 1.5 ppm
- concentration at which work is difficult (inhalation): 1.5-2 ppm
- concentration at which short term exposure can be irritating (as low as) (inhalation, short term exposure): 0.1 ppm
- evaporation rate relative to 26 degrees (room temperature) ([2]; at 50 degrees Centigrade): over 10 times
- evaporation rate relative to 26 degrees ([2]; at 80 degrees): over 30 times
- concentration at which decreased virulence of viruses occurred (influenza viruses; in vitro): 0.005 ppm
- concentration for complete inactivation of viruses (influenza viruses; within 1 minute in vitro): 0.1 ppm
- time for successful use against viruses (a variety of viruses): ≤ 5 min

Compound: CCN(CC)CCCC(C)Nc1ccnc2cc(Cl)ccc12 (centres unmarked) [chloroquine]
- time to increase of pH of acid vesicles (parasite's acid vesicles): 3-5 min
